The results in this text go back to PMC6801902, “Directed Evolution of Clostridium thermocellum β-Glucosidase A Towards Enhanced Thermostability” (International Journal of Molecular Sciences, 2019).

Test [1] addresses C. thermocellum BglA (β-glucosidase A, Clo1313_2020) (Acetivibrio thermocellus, UniProt P26208, A17S/K268N, form not given). The test is described as follows: continuous p-nitrophenol release at OD405, nonlinear fit (GraphPad Prism). Type of test: biochemical. To be noted: 50 mM citrate buffer pH 6.1, 60 °C, 0-25 mM pNPG, 13 nM enzyme; thermostable mutant Mut 1. From the text:
(§1) continuous p-nitrophenol release at OD405, nonlinear fit (GraphPad Prism) on C. thermocellum BglA (β-glucosidase A, Clo1313_2020)

For test [2], the target named is C. thermocellum BglA (β-glucosidase A, Clo1313_2020) (Acetivibrio thermocellus, UniProt P26208). Described as above. In kind it is biochemical. To be noted: 50 mM citrate buffer pH 6.1, 60 °C, 0-25 mM pNPG, 13 nM enzyme; read-out: Wild Type.
Description: as §1

Chain of C. thermocellum BglA (β-glucosidase A, Clo1313_2020) (Acetivibrio thermocellus, UniProt P26208) (P26208 whole entry): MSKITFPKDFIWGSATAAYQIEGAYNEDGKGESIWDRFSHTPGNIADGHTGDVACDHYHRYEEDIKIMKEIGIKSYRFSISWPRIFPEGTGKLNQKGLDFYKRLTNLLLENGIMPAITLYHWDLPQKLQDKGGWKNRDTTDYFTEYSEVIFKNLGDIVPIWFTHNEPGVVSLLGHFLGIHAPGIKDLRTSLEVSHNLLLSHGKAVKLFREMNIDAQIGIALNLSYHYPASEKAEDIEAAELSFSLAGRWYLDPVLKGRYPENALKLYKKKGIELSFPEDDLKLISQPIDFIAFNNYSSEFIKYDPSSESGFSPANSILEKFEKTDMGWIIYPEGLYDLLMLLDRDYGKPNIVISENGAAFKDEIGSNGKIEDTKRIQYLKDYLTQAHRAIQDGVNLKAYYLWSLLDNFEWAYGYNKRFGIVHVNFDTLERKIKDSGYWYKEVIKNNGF
Chain of C. thermocellum BglA (β-glucosidase A, Clo1313_2020) (Acetivibrio thermocellus, UniProt P26208, A17S/K268N, form not given) (P26208 whole entry A17S/K268N, form open): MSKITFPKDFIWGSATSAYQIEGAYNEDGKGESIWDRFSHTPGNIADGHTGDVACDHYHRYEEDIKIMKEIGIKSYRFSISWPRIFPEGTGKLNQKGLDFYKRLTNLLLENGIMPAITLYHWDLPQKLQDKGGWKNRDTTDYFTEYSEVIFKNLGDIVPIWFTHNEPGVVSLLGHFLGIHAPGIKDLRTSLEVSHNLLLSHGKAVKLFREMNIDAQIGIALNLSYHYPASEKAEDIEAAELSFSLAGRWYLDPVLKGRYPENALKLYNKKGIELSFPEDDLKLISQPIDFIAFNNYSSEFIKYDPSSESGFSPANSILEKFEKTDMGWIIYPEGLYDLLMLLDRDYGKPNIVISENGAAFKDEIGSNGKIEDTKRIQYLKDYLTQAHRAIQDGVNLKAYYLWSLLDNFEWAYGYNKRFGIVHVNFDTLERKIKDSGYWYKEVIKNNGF

Consider `O=[N+]([O-])c1ccc(O[C@@H]2O[C@H](CO)[C@@H](O)[C@H](O)[C@H]2O)cc1` [pNPG, p-nitrophenyl-β-D-glucopyranoside], for which the Km came out at 5 ± 0.59 mM in test [1] and 6.7 ± 1.11 mM in test [2].
